Measured values published in PubChem BioAssay AID328 (DTP/NCI, 2004).
Where “and” joins values, the source holds several entries; their conditions need not be identical. Identical values can stand only once. Toxic doses and inconclusive results are not listed.

System: BDF1 mice, P388 leukemia ip, median survival T/C
Assay: NCI In Vivo Anticancer Drug Screen. Data for tumor model P388 Leukemia (intraperitoneal) in B6D2F1 (BDF1) mice
Conditions: endpoint: median survival time, higher = longer survival
In short: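 Steps: implant the tumour, treat one group with compound and another with vehicle, record survival, then divide treated by control.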

[1] = dose: 50.0 mg/kg/injection, schedule: Q01DX009 (ip), vehicle: saline with Tween-80
[2] = dose: 100.0 mg/kg/injection, schedule: Q04DX003 (ip), vehicle: water
[3] = dose: 200.0 mg/kg/injection, schedule: Q04DX003 (ip), vehicle: water
[4] = dose: 100.0 mg/kg/injection, schedule: Q04DX003 (ip), vehicle: Klucel (hydroxypropylcellulose) (HPC)
[5] = dose: 200.0 mg/kg/injection, schedule: Q04DX003 (ip), vehicle: Klucel (hydroxypropylcellulose) (HPC)
[6] = dose: 400.0 mg/kg/injection, schedule: Q04DX003 (ip), vehicle: Klucel (hydroxypropylcellulose) (HPC)
[7] = dose: 400.0 mg/kg/injection, schedule: Q04DX003 (ip), vehicle: saline with Tween-80

SMILES: CNc1n[n+](-c2ccccc2)no1
- T/C (dose: 3.12 mg/kg/injection, schedule: Q01DX009 (ip), vehicle: saline): 115 % of control
- T/C (dose: 6.25 mg/kg/injection, schedule: Q01DX009 (ip), vehicle: saline): 101 % of control and 120 % of control
- T/C (dose: 6.25 mg/kg/injection, schedule: Q04DX003 (ip), vehicle: saline): 102 % of control
- T/C (dose: 12.5 mg/kg/injection, schedule: Q04DX003 (ip), vehicle: saline): 96 % of control
- T/C (dose: 25.0 mg/kg/injection, schedule: Q04DX003 (ip), vehicle: saline): 104 % of control and 107 % of control

SMILES: CCC/C=C/C=C/C1CC(O)C(O)C(=O)C1C=O (stereo not drawn)
- T/C (dose: 12.5 mg/kg/injection, schedule: Q01DX009 (ip), vehicle: saline with Tween-80): 108 % of control
- T/C (dose: 25.0 mg/kg/injection, schedule: Q01DX009 (ip), vehicle: saline with Tween-80): 100 % of control
- T/C [1]: 101 % of control

SMILES: CC1OC(OCc2cc(O)c3c(c2)C(C2OC(CO)C(O)C(O)C2O)c2cccc(O)c2C3=O)C(O)C(O)C1O (stereo not drawn)
- T/C (dose: 50.0 mg/kg/injection, schedule: Q04DX003 (ip), vehicle: water): 105 % of control
- T/C [2]: 101 % of control
- T/C [3]: 90 % of control

SMILES: Cc1ccc(NC(=O)/C=C\C(=O)O)cc1
- T/C [4]: 108 % of control
- T/C [5]: 100 % of control
- T/C [6]: 100 % of control

SMILES: CC(O)Cc1c[nH]c(=O)[nH]c1=O (stereo not drawn)
- T/C (dose: 100.0 mg/kg/injection, schedule: Q01DX009 (ip), vehicle: water): 92 % of control
- T/C [2]: 90 % of control
- T/C (dose: 200.0 mg/kg/injection, schedule: Q01DX009 (ip), vehicle: water): 96 % of control
- T/C [3]: 105 % of control
- T/C (dose: 400.0 mg/kg/injection, schedule: Q04DX003 (ip), vehicle: water): 96 % of control

SMILES: CN=S(=O)(OCCCCOS(=O)(=NC)c1ccc(C)cc1)c1ccc(C)cc1 (stereo not drawn)
- T/C [7]: 152 % of control

SMILES: CCOC(=O)Cc1csc(NN=C(C)C)n1
- T/C (dose: 50.0 mg/kg/injection, schedule: Q01DX009 (ip), vehicle: saline): 108 % of control
- T/C (dose: 100.0 mg/kg/injection, schedule: Q01DX009 (ip), vehicle: saline): 110 % of control

SMILES: O=C(CCNOCc1ccccc1)OCc1ccccc1
- T/C (dose: 12.5 mg/kg/injection, schedule: Q01DX009 (ip), vehicle: other): 101 % of control
- T/C (dose: 25.0 mg/kg/injection, schedule: Q01DX009 (ip), vehicle: other): 100 % of control
- T/C (dose: 50.0 mg/kg/injection, schedule: Q01DX009 (ip), vehicle: other): 101 % of control
- T/C (dose: 200.0 mg/kg/injection, schedule: Q01DX009 (ip), vehicle: other): 89 % of control

SMILES: CC(=O)NC(Cc1ccc(N(CCCl)CCCl)cc1)C(=O)NC(CC(C)C)C(=O)O (stereo not drawn)
- T/C (dose: 20.0 mg/kg/injection, schedule: Q04DX003 (ip), vehicle: other): 152 % of control
- T/C (dose: 40.0 mg/kg/injection, schedule: Q04DX003 (ip), vehicle: other): 203 % of control
- T/C (dose: 80.0 mg/kg/injection, schedule: Q04DX003 (ip), vehicle: other): 239 % of control
- T/C (dose: 160.0 mg/kg/injection, schedule: Q04DX003 (ip), vehicle: other): 104 % of control

SMILES: CCOC(=O)c1cnn(-c2ccccc2)c1C
- T/C (dose: 100.0 mg/kg/injection, schedule: Q01DX009 (ip), vehicle: Klucel (hydroxypropylcellulose) (HPC)): 104 % of control
- T/C [4]: 104 % of control
- T/C (dose: 200.0 mg/kg/injection, schedule: Q01DX009 (ip), vehicle: Klucel (hydroxypropylcellulose) (HPC)): 100 % of control
- T/C [5]: 87 % of control
- T/C (dose: 400.0 mg/kg/injection, schedule: Q01DX009 (ip), vehicle: Klucel (hydroxypropylcellulose) (HPC)): 90 % of control
- T/C [6]: 104 % of control

SMILES: O=C(C/C(=N\C(=S)Nc1cc(C(F)(F)F)ccc1Cl)NO)N1CCCC1
- T/C [1]: 110 % of control

SMILES: Cc1cc(=O)[nH]c(N(CCO)CCO)n1
- T/C (dose: 100.0 mg/kg/injection, schedule: Q01DX009 (ip), vehicle: saline with Tween-80): 100 % of control
- T/C (dose: 100.0 mg/kg/injection, schedule: Q04DX003 (ip), vehicle: saline with Tween-80): 100 % of control
- T/C (dose: 200.0 mg/kg/injection, schedule: Q01DX009 (ip), vehicle: saline with Tween-80): 96 % of control
- T/C (dose: 200.0 mg/kg/injection, schedule: Q04DX003 (ip), vehicle: saline with Tween-80): 95 % of control
- T/C (dose: 400.0 mg/kg/injection, schedule: Q01DX009 (ip), vehicle: saline with Tween-80): 88 % of control
- T/C [7]: 90 % of control
